The values below are quoted from earlier work in patent US5135753A, “Method and therapeutic system for smoking cessation” (Pharmetrix Corporation, priority 1991, dated 1992).

One series has as its system skin. The following applies: average penetration rate through the skin; very approximate figures.
Series [1] concerns smoking withdrawal symptoms. The conditions noted are these: low consistent blood levels of nicotine; craving may not be among the relieved symptoms.
The test system of series [2] is nicotinic cholinergic receptors in the CNS and at autonomic ganglia. The conditions noted are these: in 10 minutes.
The conditions of series [3]: Russell.

`Clc1cccc(Cl)c1N=C1NCCN1` [clonidine]: the skin flux in the series with skin is given as 0.5 μg/cm^2.h.
For `C[C@]12CC[C@@H]3c4ccc(O)cc4CC[C@H]3[C@@H]1CC[C@@H]2O` [estradiol], the skin flux in the series on skin is given as 0.01-0.03 μg/cm^2.h.
For the molecule `CN1CCCC1c1cccnc1` (stereo not shown) [nicotine], the “symptoms of nicotine withdrawal” value in series [1] is given as “relieve some of the symptoms of nicotine withdrawal”. Also, the lethal unit dose entry in the series with average adult was “about 60 mg”. In addition, the skin flux with skin is given as 100-300 μg/cm^2.h. Further, the “rise in nicotine blood level required to obtain postsynaptic effects” value in series [2] is “at least 10 ng/mL”. Also, the “permeability at later times” value with human cadaver skin (at later times, "and more") is recorded as no less than 0.4 mg/cm^2.h. For the same molecule, the “permeability during the first day of patch use” value in the series on human cadaver skin (first day of patch use) is on record as roughly 0.1 mg/cm^2.h. The “optimal steady-state blood level for nicotine replacement” value in series [3] was 10 to 15 ng/mL.
Regarding `O=[N+]([O-])OCC(CO[N+](=O)[O-])O[N+](=O)[O-]` [nitroglycerin], the skin flux with skin was 10-25 μg/cm^2.h.
